Data from patent US9415134B2, “Fosfomycin preparation, a method for producing the preparation, and a polymethylmethacrylate bone cement powder containing the preparation” (HERAEUS MEDICAL GMBH, priority 2014, dated 2016).

Legend:
[1] = biological target: MurA (UDP-N-acetylglucosamine-enolpyruvyl-transferase) (Escherichia coli, UniProt P0A749); details: cited from earlier work
[2] = tested on: ESBL; details: cited from earlier work
[3] = tested on: vancomycin-resistant enterococci; details: cited from earlier work
[4] = tested on: gram-negative and gram-positive bacteria including methicillin-resistant staphylococci; details: cited from earlier work
[5] = tested on: vancomycin-resistant Staphylococcus aureus (VRS); details: cited from earlier work
[6] = Hygroscopic properties of fosfomycin salts; assay type: physicochemical; details: salt alone, atmospheric humidity
Text: Both salts attract atmospheric humidity and deliquesce in the process. Experiments have shown that these salts, in the dry state, can be integrated into cement powders of polymethylmethacrylate bone cements. However, said cement powders also attract atmospheric humidity during storage on air, upon which the antibiotic particles deliquesce. This can cause the cement powder to clump. For this reason, both of these fosfomycin salts are unsuitable or poorly suitable for industrial production of antibiotic polymethylmethacrylate bone cement powders.

MurA (UDP-N-acetylglucosamine-enolpyruvyl-transferase), sequence (P0A749 whole entry): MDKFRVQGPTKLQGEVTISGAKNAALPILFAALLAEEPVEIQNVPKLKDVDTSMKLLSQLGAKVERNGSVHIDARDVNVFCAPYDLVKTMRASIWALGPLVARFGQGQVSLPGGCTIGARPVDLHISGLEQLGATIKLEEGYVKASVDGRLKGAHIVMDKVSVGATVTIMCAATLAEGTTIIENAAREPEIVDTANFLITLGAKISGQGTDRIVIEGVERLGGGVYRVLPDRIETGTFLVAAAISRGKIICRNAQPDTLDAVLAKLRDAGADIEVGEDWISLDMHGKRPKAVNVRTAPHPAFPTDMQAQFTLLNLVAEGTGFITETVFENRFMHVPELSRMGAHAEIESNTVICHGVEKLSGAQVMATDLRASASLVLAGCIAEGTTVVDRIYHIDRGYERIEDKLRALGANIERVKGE

In the case of `C[C@@H]1O[C@@H]1P(=O)(O)O` [Fosfomycin, (2R,3S)-3-methyloxiranphosphonic acid], the “Inhibition of MurA” value [1] is listed as “inhibits”, the Antibacterial efficacy [2] is listed as “efficacious” and the Antibacterial efficacy [3] is listed as “efficacious”. For the same molecule, the Antibacterial activity ([4]; gram-negative and gram-positive bacteria including methicillin-resistant staphylococci) was “active”, the “Mode of antibacterial action” value ([4]; in susceptible bacteria) was “bactericidal” and the Antibacterial efficacy [5] was “efficacious”.

In the case of `C[C@@H]1O[C@@H]1P(=O)([O-])[O-].O.[Ca+2]` [calcium salt of fosfomycin, monohydrate of the calcium salt of fosfomycin], the Hygroscopic properties [6] is reported as “extraordinarily hygroscopic”.

With `C[C@@H]1O[C@@H]1P(=O)([O-])[O-].[Na+].[Na+]` [sodium salt, disodium salt of fosfomycin] the Hygroscopic properties [6] was “extraordinarily hygroscopic”.

With `C[C@@H]1O[C@@H]1P(=O)(O)O.NC(CO)(CO)CO` [trometamol-fosfomycin] the Hygroscopic properties [6] was “somewhat hygroscopic”.
